Source: patent publication US5312831A, “Urethanes and ureas that induce cytokine production” (American Cyanamid Company, priority 1993, dated 1994)

Legend:
Assay type in all cases: in vivo, mouse
[1] = test system: IL-6; assay: Serum IL-6 production in mice after single s.c. injection (7TD1 bioassay); conditions: serum 4 h post injection
Method: Description of Biological Assays Interleukin 6(IL-6) assay for structure function analysis--Test compounds are dissolved in water and administered subcutaneously in 0.2 ml to deliver a dose of 0.1-10 mg/kg. The less soluble compounds are first dissolved in 100% ethanol and then brought to the appropriate concentration in water. Four hours post injection, the mice are bled and the serum is retrieved. The IL-6 dependent cell line 7TDl is used to assay serial dilutions of sera for IL-6 content. 7TDl cells (1×10^4) are placed in microtiter wells and incubated at 37° C. for 72 hours with standard recombinant mouse IL-6 or with dilutions of serum to be tested. Over the last 6 hours, the cells are pulsed with ^3 H-Tdr (μci). Cells are then harvested and the degree of proliferation determined by the uptake of ^3 H-Tdr as measured by liquid scintillation spectrometry. The concentration of IL-6 in serum is calculated from standard curves utilizing recombinant IL-6 from R&D Systems Inc. and are reported in units of IL-6 activity as defined by the manufacturer.

[2] = test system: CSF; assay: Serum colony stimulating factor (CSF) assay in mice; conditions: serum 4 hours after injection
Method: Colony forming assays Granulocyte-Macrophage (CFU-GM)--Mice are treated with 150 mg/kg of 5-Fu and treatment with test compound begins 24 hrs. later. On consecutive days, mice are killed by cervical dislocation and the femurs removed under sterile conditions. Femurs are flushed with 1 ml of ice cold medium (Iscove's supplemented with 20% FCS, 1% penicillin-streptomycin, 1% glutamine and 5×10^-5 M 2-mercaptoethanol). Bone marrow cells (5×10^5) are then plated in 12×75 mm tissue culture plates in 3 ml of warm ararose (3%) in Iscove's medium with 100 Units/ml of recombinant mouse GM-CSF purchased from Genzyme (Boston, Mass.). Plates are incubated for 7 days at 37° C. in 5% CO2. After 7 days, colonies of 50 cells or greater are enumerated under a dissecting microscope.
Bone marrow cells are prepared as described above for the CFU-GM assay. The cells are then incubated in soft agar with an 0.3% final concentration of serum taken from mice 4 hours after injection with test compounds. After 7 days of incubation at 37° C., the number of colony forming (CFU) cells per 10^5 plated bone marrow cells is determined by counting colonies of more than 50 cells under a dissecting microscope. The data are reported as CFU/10^5 bone marrow cells.

[3] = test system: neutrophils; assay: Neutrophil recovery in 5-FU treated mice; conditions: mouse, in vivo
Method: Circulating Neutrophil Assay--Mice are treated with 5-FU (150 mg/kg) and beginning 24 hrs. later, treated daily with the test compound. Mice are bled daily by retroorbital puncture in heparinized capillary tubes. Circulating WBC counts are determined by Coulter counter. Blood smears are stained with Wright-Geimsa solution and the percentage circulating neutrophils determined by differential counting under a microscope.
5-Fluorouracil (5-FU) Induced Neutropenia In Mice--Mice are treated ip with 150 mg/kg of the chemotherapy agent 5-FU which induces a severe loss of neutrophils in the peripheral blood 5-6 days later. Twenty-four hrs. after the dose, treatment with the test compounds is initiated. The effect of the test compounds on recovery of neutrophil progenitor cells in the bone marrow is determined by the CFU-GM assay. The recovery of circulating neutrophils is followed by differential staining of the peripheral blood.
*Data from 10 mice/group on day 7 post treatment with 150 mg/kg of 5FU.
Beginning 24 hrs. after 5FU dose, mice were treated daily with test
compound at concentrations indicated. Neutrophil count for normal mice (n
**Mice treated with 5FU and vehicle only.

[4] = test system: neutrophils; assay: Neutrophil recovery in 5-FU treated mice; conditions: day 7 post 5FU, n = 6 mice/group, 0 dose 54 ± 22

SMILES | IL-6 ([1]; 1.0 mg/kg s.c.) [U/ml] | IL-6 ([1]; 10.0 mg/kg s.c.) [U/ml] | CSF production, CFU/100,000 Bone Marrow Cells ([2]; 1.0 mg/kg) | CSF production, CFU/100,000 Bone Marrow Cells ([2]; 10.0 mg/kg) | IL-6 ([1]; 0.1 mg/kg s.c.) [U/ml] | CSF production, CFU/100,000 Bone Marrow Cells ([2]; 0.1 mg/kg) | neutrophil recovery in 5-FU treated mice (in words) [3] | Neutrophils/cu. mm. ([4]; 1 μg/kg daily) | Neutrophils/cu. mm. ([4]; 10 μg/kg daily) | Neutrophils/cu. mm. ([4]; 100 μg/kg daily)
CCCCCCC(=O)NC(CNC(=O)N[C@@H](CCCC(NC(=O)OC(C)(C)C)C(=O)O)C(=O)N[C@H](C)C(=O)O)C(=O)O (stereo partly shown) [Example 83] | 332 ± 38 | 1818 ± 243 | 204 ± 9 CFU/100,000 Bone Marrow Cells | 123 ± 22 CFU/100,000 Bone Marrow Cells | – | – | – | – | – | –
CCCCCCC(=O)NC(CNC(=O)N[C@@H](CCCC(N)C(=O)OC)C(=O)N[C@H](C)C(=O)OC)C(=O)O (stereo partly shown) [Example 82] | 2181 ± 92 | 3188 ± 345 | 108 ± 11 CFU/100,000 Bone Marrow Cells | 115 ± 3 CFU/100,000 Bone Marrow Cells | – | – | – | – | – | –
CCCCCCC(=O)N[C@H](C(=O)O)[C@H](C)OC(=O)N[C@@H](CCC[C@@H](N)C(=O)O)C(=O)N[C@H](C)C(=O)O [Example 30, [S-(R*,R*)]-N-(R)-6-carboxy-N^2-[[2-Carboxy-1-methyl-2-[(1-oxoheptyl)amino]ethoxy]carbonyl]-L-lysyl]-D-Alanine] | – | – | – | – | 328 ± 107 | – | – | – | – | –
CCCCCCC(=O)N[C@H](C(=O)O)[C@@H](C)OC(=O)N[C@@H](CCC[C@@H](N)C(=O)O)C(=O)N[C@H](C)C(=O)O (relative stereo) [Example 31, R-(R*,S*)]-N-(R)-6-carboxy-N^2-[[2-carboxy-1-methyl-2-[(1-oxoheptyl)amino]ethoxy]carbonyl]-L-lysyl]-D-Alanine] | – | – | – | – | 294 ± 24 | – | – | – | – | –
CCCCCCC(=O)N[C@@H](C(=O)O)[C@H](C)OC(=O)N[C@@H](CCC[C@@H](N)C(=O)O)C(=O)N[C@H](C)C(=O)O [Example 29, [S-(R*,S*)]-N-[(R)-6-carboxy-N^2-[[2-carboxy-1-methyl-2-[(1-oxoheptyl)amino]ethoxy]carbonyl]-L-lysyl]-D-Alanine] | 203 | 537 | 101 ± 46 CFU/100,000 Bone Marrow Cells | – | 0 | 0 ± 0 CFU/100,000 Bone Marrow Cells | – | – | – | –
CCCCCCC(=O)NC(CNC(=O)N[C@@H](CCCC(NC(=O)OC(C)(C)C)C(=O)OC)C(=O)N[C@H](C)C(=O)OC)C(=O)O (stereo partly drawn) [Example 81, N-N^2-[[[2-carboxy-2-[(1-oxoheptyl)amino]ethyl]amino]carbonyl]-N^6-[(1,1-dimethylethoxy)carbonyl]-6-(methoxycarbonyl)-L-lysyl-D-alanine methyl ester] | 56 ± 19 | 199 ± 23 | 69 ± 14 CFU/100,000 Bone Marrow Cells | 101 ± 7 CFU/100,000 Bone Marrow Cells | – | – | – | – | – | –
CCCCCCC(=O)NC(CNC(=O)N[C@@H](CCCC(N)C(=O)O)C(=O)N[C@H](C)C(=O)O)C(=O)O (stereo partly shown) [Example 84] | 3865 ± 688 | 2512 ± 209 | 118 ± 15 CFU/100,000 Bone Marrow Cells | 131 ± 10 CFU/100,000 Bone Marrow Cells | 1963 ± 97 | 129 ± 14 CFU/100,000 Bone Marrow Cells | induce neutrophil recovery in 5-FU treated mice | 427 ± 211 /cu. mm. | 570 ± 224 /cu. mm. | 2194 ± 629 /cu. mm.
CCCCCC1CCC(C(=O)NC(C(=O)O)C(C)OC(=O)N[C@@H](CCC[C@@H](N)C(=O)O)C(=O)N[C@H](C)C(=O)O)CC1 (stereo partly drawn) [Example 33, [(R)-6-Carboxy-N^2-[[2-carboxy-1-methyl-2-[[(4-pentylcyclohexyl)carbonyl]amino]ethoxy]carbonyl]-L-lysyl]-D-Alanine] | 3767 ± 457 | – | – | – | 1651 ± 100 | – | – | – | – | –
CCCCOc1ccc(CC(=O)NC(C(=O)O)C(C)OC(=O)N[C@@H](CCC[C@@H](N)C(=O)O)C(=O)N[C@H](C)C(=O)O)cc1 (stereo partly drawn) [Example 34, N-[N^2-[[2-[[(4-Butoxyphenyl)acetyl]amino]-2-carboxy-1-methylethoxy]carbonyl]-(R)-6-carboxy-L-lysyl]-D-Alanine] | 5063 ± 302 | – | – | – | 3610 ± 347 | – | – | – | – | –
CCCCCCC(=O)NC(CNC(=O)N[C@@H](CCCC(N)C(=O)OC)C(=O)N[C@H](C)C(=O)OC)C(=O)OCc1ccccc1 (stereo partly shown) [Example 80] | 1712 ± 168 | 3624 ± 611 | 91 ± 3 CFU/100,000 Bone Marrow Cells | 121 ± 9 CFU/100,000 Bone Marrow Cells | – | – | – | – | – | –
